pIC50: −log10 of the molar value. Read-outs that look alike come from different tables or passages of the source.
Legend:
[1] = system: MCF-7; experiment: Cell viability (MTT) assay, 24-h IC50, MCF-7; format: cell-based, human
[2] = system: MDA-MB231; experiment: Cell viability (MTT) assay, 24-h IC50, MDA-MB231; format: cell-based, human
[3] = system: HT29; experiment: Cell viability (MTT) assay, 24-h IC50, HT29; format: cell-based, human
[4] = system: SW480; experiment: Cell viability (MTT) assay, 24-h IC50, SW480; format: cell-based, human
[5] = system: MIA-PaCa-2; experiment: Cell viability (MTT) assay, 24-h IC50, MIA-PaCa-2; format: cell-based, human
[6] = system: BxPC-3; experiment: Cell viability (MTT) assay, 24-h IC50, BxPC-3
Method: Cells were incubated at 37° C. in 5% CO2. Cells were seeded at 5.5×10^4 cells/cm^2, allowed to attach overnight, and the following morning cells were treated with each of the test compounds.
Cell viability assay: We used an assay based on the reduction of 3-(4,5-dimethylthiazol-2-yl)-2,5-diphenyltetrazolium bromide dye (MTT), which was determined according to the manufacture's protocol (Promega, Madison, Wis., USA).

[7] = system: MDA-MB 231 human breast cancer cells; experiment: Cell proliferation assay (BrdU incorporation) in MDA-MB231; format: cell-based; details: MDA-MB231, each compound at its IC50 concentration
Description: Cell proliferation assay: To determine cell proliferation, we measured the incorporation of 5-bromo-2′-deoxyuridine (BrdU) into newly synthesized cellular DNA, following the manufacture's instructions (BD Biosciences, San Jose, Calif.).
(§1) As summarized in Table 2 below, in MDA-MB231 cells, all six compounds, each used at its IC50 concentration, a) inhibited cell proliferation between 6% and 50% compared to controls; b) induced both early and late apoptosis, as well as necrosis; and c) inhibited the G1 to S cell cycle phase transition. In this Table, the values for proliferation are the percentage of the corresponding control values. Those for apoptosis and necrosis refer to the percentage of cells in each category with respect to the entire cell population, and are to be compared to the control (vehicle only-treated) cells (uppermost row).

[8] = system: MDA-MB 231 human breast cancer cells; experiment: Annexin V and propidium iodide staining in MDA-MB231; format: cell-based; details: MDA-MB231, compound at its IC50, 24 h; for Necrosis (%): % of entire cell population (control 0.6); for Early apoptosis (%): % of entire cell population (control 1.4); for Late apoptosis (%): % of entire cell population (control 2.0)
Method: Annexin V and propidium iodide (PI) staining: Cells were seeded at a density of 1×10^5 cells/well and treated for 24 h with various concentrations of each compound or equivalent volumes of DMSO. Briefly, after incubation with the test compounds, cells were trypsinized and stained with Annexin V-FITC (Invitrogen) and PI (0.5 μg/ml). Following incubation at room temperature for 15 min in the dark, annexin V-FITC and PI fluorescence intensities were analyzed by FACScaliber (BD Bioscience). Annexin V (+)/PI (−) cells are in early apoptosis, annexin V (+)/PI (+) cells are in late apoptosis (secondary necrosis), and annexin V (−)/ PI (+) cells are necrotic cells.
as §1

[9] = Homo sapiens, BXPC-3, 24 h, read-out: IC50 (growth of human cancer cells)
[10] = Homo sapiens, BXPC-3, 24 h, read-out: 24-h IC50
[11] = Homo sapiens, MCF7, MCF-7 breast cancer cells, 24 h, read-out: 24-h IC50
[12] = Homo sapiens, MDA-MB-231, MDA-MB231 breast cancer cells, 24 h, read-out: 24-h IC50
[13] = Homo sapiens, HT-29, HT29 colon cancer cells, 24 h, read-out: 24-h IC50
[14] = Homo sapiens, SW480 colon cancer cells, 24 h, read-out: 24-h IC50
[15] = Homo sapiens, MIA-PaCa-2 pancreatic cancer cells, 24 h, read-out: 24-h IC50

CCCC(CCC)C(=O)Oc1ccc(COP(=O)(OCC)OCC)cc1 [Phosoho-VPA]
pIC50 ([1]; Homo sapiens, MCF7, 24 h, read-out: IC50 (growth of human cancer cells)): 4.29
pIC50 ([2]; Homo sapiens, MDA-MB-231, 24 h, read-out: IC50 (growth of human cancer cells)): 4.52
pIC50 ([3]; Homo sapiens, HT-29, 24 h, read-out: IC50 (growth of human cancer cells)): 4.89
pIC50 ([4]; Homo sapiens, SW480, 24 h, read-out: IC50 (growth of human cancer cells)): 4.23
pIC50 ([5]; Homo sapiens, MIA PaCa-2, 24 h, read-out: IC50 (growth of human cancer cells)): 4.05
pIC50 [6, 9]: 4.44

CCOP(=O)(OCC)OCCCCOC(=O)C(C)c1ccc(CC(C)C)cc1 (centres unmarked) [Phospho-Ibuprofen]
pIC50 ([1]; Homo sapiens, MCF7, 24 h, read-out: 24-h IC50): 4.10
pIC50 ([2]; Homo sapiens, MDA-MB-231, 24 h, read-out: 24-h IC50): 4.55
pIC50 ([3]; Homo sapiens, HT-29, 24 h, read-out: 24-h IC50): 4.09
pIC50 ([4]; Homo sapiens, SW480, 24 h, read-out: 24-h IC50): 4.12
pIC50 ([5]; Homo sapiens, MIA PaCa-2, 24 h, read-out: 24-h IC50): 3.98
Proliferation (% control) [7]: 50 % control
Necrosis (%) [8]: 5.6%
Early apoptosis (%) [8]: 7.4%
Late apoptosis (%) [8]: 43.2%
pIC50 [6, 10]: 4.28

CCOP1(=O)OCC(COC(=O)c2ccccc2OC(C)=O)O1 (centres unmarked) [Glycero-phospho-aspirin I]
pIC50 ([1]; MCF-7 breast cancer cells, 24 h, read-out: 24-h IC50): 4.49
pIC50 ([2]; MDA-MB231 breast cancer cells, 24 h, read-out: 24-h IC50): 3.70
pIC50 ([3]; HT29 colon cancer cells, 24 h, read-out: 24-h IC50): 4.27
pIC50 ([4]; SW480 colon cancer cells, 24 h, read-out: 24-h IC50): 3.77
pIC50 ([5]; MIA-PaCa-2 pancreatic cancer cells, 24 h, read-out: 24-h IC50): 3.52
Proliferation (% control) [7]: 94 % control
Necrosis (%) [8]: 0.3%
Early apoptosis (%) [8]: 4.8%
Late apoptosis (%) [8]: 3.2%
pIC50 ([6]; read-out: 24-h IC50, BxPC-3 pancreatic cancer cells, 24 h): 4.20

CC(C(=O)O)c1ccc(-c2ccccc2)c(F)c1 (centres unmarked) [Flurobiprofen, flurbiprofen, reference compound]
pIC50 [1, 11]: 2.84
pIC50 [2, 12]: 3.08
pIC50 [3, 13]: 2.78
pIC50 [4, 14]: 2.92
pIC50 [5, 15]: 2.90
pIC50 [6, 10]: 3.08

CC(=O)Oc1ccccc1C(=O)O [Aspirin, acetylsalicylic acid, reference compound]
pIC50 [1, 11]: < 2.70
pIC50 [2, 12]: < 2.70
pIC50 [3, 13]: 2.40
pIC50 [4, 14]: < 2.70
pIC50 [5, 15]: < 2.70
pIC50 [6, 10]: < 2.70

CCCC(CCC)C(=O)O [VPA, Valproic acid, reference compound]
pIC50 ([1]; Homo sapiens, MCF7, Table 3, MCF-7, 24-h IC50, read-out: IC50 (growth of human cancer cells)): 2.75
pIC50 ([2]; Homo sapiens, MDA-MB-231, Table 3, MDA-MB231, 24-h IC50, read-out: IC50 (growth of human cancer cells)): 2.39
pIC50 ([3]; Homo sapiens, Table 3, HT-29, 24-h IC50, read-out: IC50 (growth of human cancer cells)): 2.49
pIC50 ([4]; Homo sapiens, Table 3, SW480, 24-h IC50, read-out: IC50 (growth of human cancer cells)): 2.44
pIC50 ([5]; Homo sapiens, MIA PaCa-2, Table 3, MIA PaCa2, 24-h IC50, read-out: IC50 (growth of human cancer cells)): 2.51
pIC50 [6, 9]: 2.77
